In ChEMBL document CHEMBL4800723, “Data for DCP probe BI-1942” (2021):
Active and inactive are the calls of the source. The rule behind the calls is not given here.

Columns and labels:
[1] = target: 5-hydroxytryptamine receptor 1D (Homo sapiens, UniProt P28221); assay: GPCRScan assay: inhibition of 5-HT1D; parameters: radioligand conc. used [nm] 1.0 – 2.0, parental cells HEKT
[2] = target: T1, Kappa-type opioid receptor (Homo sapiens, UniProt P41145); assay: GPCRScan assay: inhibition of KOR; parameters: radioligand conc. used [nm] 0.6 – 1.2, parental cells stable HEK
Chymase = Chymase (Homo sapiens, UniProt P23946); assay: Angiotensin II formation by CMA1 in human plasma; format: cell-free
[3] = target: Prostaglandin G/H synthase 1 (Homo sapiens) (UniProt P23219); assay: COX-1 Eurofins SafetyScreen44 (BI); conditions: Compound concentration 10.0 uM
[4] = target: Prostaglandin G/H synthase 2 (Homo sapiens) (UniProt P35354); assay: COX-2 Eurofins SafetyScreen44 (BI); conditions: Compound concentration 10.0 uM
[5] = target: Serotonin 3 (5-HT3) receptor (Homo sapiens) (UniProt P46098+A5X5Y0+O95264+Q70Z44+Q8WXA8); assay: 5HT3/H Eurofins SafetyScreen44 (BI); format: protein-complex assay; conditions: Compound concentration 10.0 uM
[6] = target: Beta-1 adrenergic receptor (Homo sapiens) (UniProt P08588); assay: BETA1/HUM Eurofins SafetyScreen44 (BI); conditions: Compound concentration 10.0 uM
Caspase-1 (Homo sapiens) = Caspase-1 (Homo sapiens) (UniProt P29466); assay: CASPASE-1(H) Eurofins SafetyScreen44 (BI); conditions: Compound concentration 10.0 uM
[7] = target: Caspase-10 (Homo sapiens) (UniProt Q92851); assay: CASPASE-10(H) Eurofins SafetyScreen44 (BI); conditions: Compound concentration 10.0 uM
[8] = target: Cathepsin B (Homo sapiens) (UniProt P07858); assay: CATHEPSB(H) Eurofins SafetyScreen44 (BI); conditions: Compound concentration 10.0 uM
[9] = target: Procathepsin L (Homo sapiens) (UniProt P07711); assay: CATHEPSIN-L Eurofins SafetyScreen44 (BI); conditions: Compound concentration 10.0 uM
[10] = target: Cannabinoid receptor 2 (Homo sapiens) (UniProt P34972); assay: CB2/PERIPH/H Eurofins SafetyScreen44 (BI); conditions: Compound concentration 10.0 uM
[11] = target: Cholecystokinin receptor type A (Homo sapiens) (UniProt P32238); assay: CCKA/H Eurofins SafetyScreen44 (BI); conditions: Compound concentration 10.0 uM
[12] = target: D(2) dopamine receptor (Homo sapiens) (UniProt P14416); assay: D2SH_AGON Eurofins SafetyScreen44 (BI); conditions: filed as agonist, Compound concentration 10.0 uM
[13] = target: Endothelin-converting enzyme 1 (Homo sapiens) (UniProt P42892); assay: ECE(H) Eurofins SafetyScreen44 (BI); conditions: Compound concentration 10.0 uM
[14] = target: Neutrophil elastase (Homo sapiens) (UniProt P08246); assay: ELASTASE(H) Eurofins SafetyScreen44 (BI); conditions: Compound concentration 10.0 uM
Rattus norvegicus = species on record: Rattus norvegicus; assay: K+/VOLT/RA Eurofins SafetyScreen44 (BI); conditions: Compound concentration 10.0 uM
[15] = target: Muscarinic acetylcholine receptor M2 (Homo sapiens) (UniProt P08172); assay: M2/H Eurofins SafetyScreen44 (BI); conditions: filed as antagonist, Compound concentration 10.0 uM
[16] = target: MAO-A (amine oxidase [flavin-containing] A) (Rattus norvegicus, UniProt P21396); assay: MAO-A_ANTAG Eurofins SafetyScreen44 (BI); parameters: mode of action antagonist; scale not given: the % may be the effect or the level left; conditions: compound concentration 10 uM, read-out: % Ctrl
[17] = target: Macrophage metalloelastase (Homo sapiens) (UniProt P39900); assay: MMP-12 Eurofins SafetyScreen44 (BI); conditions: Compound concentration 10.0 uM
[18] = target: Matrilysin (Homo sapiens) (UniProt P09237); assay: MMP-7 (H) Eurofins SafetyScreen44 (BI); conditions: Compound concentration 10.0 uM
[19] = target: Neutrophil collagenase (Homo sapiens) (UniProt P22894); assay: MMP-8(H) Eurofins SafetyScreen44 (BI); conditions: Compound concentration 10.0 uM
[20] = target: Matrix metalloproteinase-14 (Homo sapiens) (UniProt P50281); assay: MT1-MMP(H)(MMP-14) Eurofins SafetyScreen44 (BI); conditions: Compound concentration 10.0 uM
[21] = target: Mu-type opioid receptor (Homo sapiens) (UniProt P35372); assay: MU/H Eurofins SafetyScreen44 (BI); conditions: Compound concentration 10.0 uM
[22] = target: Sodium-dependent noradrenaline transporter (Homo sapiens) (UniProt P23975); assay: NEUP/H Eurofins SafetyScreen44 (BI); conditions: Compound concentration 10.0 uM
[23] = target: Neuronal acetylcholine receptor; alpha4/beta2 (Homo sapiens) (UniProt P17787+P43681); assay: N_NEURO_A4B2 Eurofins SafetyScreen44 (BI); format: protein-complex assay; conditions: filed as agonist, Compound concentration 10.0 uM
[24] = target: Proteinase-activated receptor 1 (Homo sapiens) (UniProt P25116); assay: PAR1(H)AGON Eurofins SafetyScreen44 (BI); conditions: filed as agonist, Compound concentration 10.0 uM
[25] = target: Sodium-dependent serotonin transporter (Homo sapiens) (UniProt P31645); assay: SLC6A4/H Eurofins SafetyScreen44 (BI); conditions: filed as antagonist, Compound concentration 10.0 uM
[26] = target: Disintegrin and metalloproteinase domain-containing protein 17 (Homo sapiens) (UniProt P78536); assay: TACE Eurofins SafetyScreen44 (BI); conditions: Compound concentration 10.0 uM
[27] = target: 5-hydroxytryptamine receptor 1A (Homo sapiens) (UniProt P08908); conditions: Compound concentration 10.0 uM
[28] = target: 5-hydroxytryptamine receptor 1B (Homo sapiens) (UniProt P28222); conditions: Compound concentration 10.0 uM
[29] = target: 5-hydroxytryptamine receptor 2A (Homo sapiens) (UniProt P28223); conditions: Compound concentration 10.0 uM
[30] = target: 5-hydroxytryptamine receptor 6 (Homo sapiens) (UniProt P50406); conditions: Compound concentration 10.0 uM
[31] = target: 5-hydroxytryptamine receptor 7 (Homo sapiens) (UniProt P34969); conditions: Compound concentration 10.0 uM
[32] = target: D(4) dopamine receptor (Homo sapiens) (UniProt P21917); conditions: Compound concentration 10.0 uM
[33] = target: Sodium-dependent noradrenaline transporter (Homo sapiens) (UniProt P23975); conditions: Compound concentration 10.0 uM
[34] = target: Mu-type opioid receptor (Homo sapiens) (UniProt P35372); conditions: Compound concentration 10.0 uM
[35] = target: T1, Kappa-type opioid receptor; conditions: Compound concentration 10.0 uM
[36] = target: GABA-A receptor; anion channel (Rattus norvegicus) (UniProt O09028+P15431+P18506+P18508+P19969+P20236+P23574+P23576+P28471+P28473+P30191+P62813+P63079+P63138+Q91ZM7+Q9ES14); conditions: Compound concentration 10.0 uM
[37] = target: Histamine H4 receptor (Homo sapiens) (UniProt Q9H3N8); conditions: Compound concentration 10.0 uM
[38] = target: Beta-1 adrenergic receptor (Homo sapiens) (UniProt P08588); conditions: Compound concentration 10.0 uM
[39] = target: Beta-2 adrenergic receptor (Homo sapiens) (UniProt P07550); conditions: Compound concentration 10.0 uM
[40] = target: Muscarinic acetylcholine receptor M1 (Homo sapiens) (UniProt P11229); conditions: Compound concentration 10.0 uM
[41] = target: Alpha-1D adrenergic receptor (Homo sapiens) (UniProt P25100); conditions: Compound concentration 10.0 uM
Chymase (Homo sapiens) = Chymase (Homo sapiens) (UniProt P23946); conditions: Compound concentration 10.0 uM

T1 sequence (P41145 whole entry): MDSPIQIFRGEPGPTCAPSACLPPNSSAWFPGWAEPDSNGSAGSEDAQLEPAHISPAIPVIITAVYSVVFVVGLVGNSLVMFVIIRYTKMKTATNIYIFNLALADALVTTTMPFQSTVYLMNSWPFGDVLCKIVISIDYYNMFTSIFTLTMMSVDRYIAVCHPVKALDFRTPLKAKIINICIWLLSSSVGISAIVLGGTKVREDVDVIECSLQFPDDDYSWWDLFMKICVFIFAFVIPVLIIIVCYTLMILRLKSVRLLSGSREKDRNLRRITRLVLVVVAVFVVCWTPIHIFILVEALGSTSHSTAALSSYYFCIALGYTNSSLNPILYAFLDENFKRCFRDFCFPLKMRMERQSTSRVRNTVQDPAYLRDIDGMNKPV
Chain of Mu-type opioid receptor (Homo sapiens) (P35372 whole entry): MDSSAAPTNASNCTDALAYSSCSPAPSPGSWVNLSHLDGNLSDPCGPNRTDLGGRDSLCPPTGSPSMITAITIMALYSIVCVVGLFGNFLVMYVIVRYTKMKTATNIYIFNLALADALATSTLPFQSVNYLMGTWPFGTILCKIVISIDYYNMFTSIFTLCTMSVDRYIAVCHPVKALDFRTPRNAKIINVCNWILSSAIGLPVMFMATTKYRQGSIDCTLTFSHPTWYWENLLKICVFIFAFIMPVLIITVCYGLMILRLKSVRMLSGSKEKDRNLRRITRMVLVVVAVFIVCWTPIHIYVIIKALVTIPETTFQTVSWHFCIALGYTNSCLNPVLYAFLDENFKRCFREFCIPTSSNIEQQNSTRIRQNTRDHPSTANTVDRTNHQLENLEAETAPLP
Chain of Beta-1 adrenergic receptor (Homo sapiens) (P08588 whole entry, looked up): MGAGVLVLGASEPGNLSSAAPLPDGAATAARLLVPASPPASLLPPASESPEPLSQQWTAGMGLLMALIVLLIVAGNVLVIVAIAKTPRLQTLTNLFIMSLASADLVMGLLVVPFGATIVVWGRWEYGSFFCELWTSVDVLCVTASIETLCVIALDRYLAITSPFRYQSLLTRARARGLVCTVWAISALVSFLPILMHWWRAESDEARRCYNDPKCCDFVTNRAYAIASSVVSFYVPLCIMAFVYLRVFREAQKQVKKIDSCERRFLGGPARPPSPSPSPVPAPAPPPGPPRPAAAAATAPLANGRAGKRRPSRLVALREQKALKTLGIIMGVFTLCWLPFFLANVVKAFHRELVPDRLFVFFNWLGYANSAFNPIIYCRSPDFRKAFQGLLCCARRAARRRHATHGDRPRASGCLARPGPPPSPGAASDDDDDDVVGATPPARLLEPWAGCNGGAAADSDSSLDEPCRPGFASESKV
Chain of Sodium-dependent noradrenaline transporter (Homo sapiens) (P23975 whole entry): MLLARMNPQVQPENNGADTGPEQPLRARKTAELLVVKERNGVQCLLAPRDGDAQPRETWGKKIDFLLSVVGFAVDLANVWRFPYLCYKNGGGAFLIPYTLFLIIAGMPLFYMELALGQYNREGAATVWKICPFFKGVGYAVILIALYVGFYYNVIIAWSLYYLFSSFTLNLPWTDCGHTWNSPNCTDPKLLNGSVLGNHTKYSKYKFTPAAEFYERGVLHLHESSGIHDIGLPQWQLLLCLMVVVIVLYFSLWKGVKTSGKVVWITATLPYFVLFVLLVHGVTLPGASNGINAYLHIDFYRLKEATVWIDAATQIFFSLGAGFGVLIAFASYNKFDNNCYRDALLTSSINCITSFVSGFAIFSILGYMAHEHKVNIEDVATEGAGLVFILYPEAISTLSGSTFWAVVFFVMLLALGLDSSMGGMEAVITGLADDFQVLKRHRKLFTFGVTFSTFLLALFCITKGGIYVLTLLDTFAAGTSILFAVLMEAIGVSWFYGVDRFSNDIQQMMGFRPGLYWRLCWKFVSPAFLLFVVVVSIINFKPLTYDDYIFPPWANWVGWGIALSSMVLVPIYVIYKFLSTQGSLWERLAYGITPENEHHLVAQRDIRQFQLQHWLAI
Chain of 5-hydroxytryptamine receptor 1D (P28221 whole entry): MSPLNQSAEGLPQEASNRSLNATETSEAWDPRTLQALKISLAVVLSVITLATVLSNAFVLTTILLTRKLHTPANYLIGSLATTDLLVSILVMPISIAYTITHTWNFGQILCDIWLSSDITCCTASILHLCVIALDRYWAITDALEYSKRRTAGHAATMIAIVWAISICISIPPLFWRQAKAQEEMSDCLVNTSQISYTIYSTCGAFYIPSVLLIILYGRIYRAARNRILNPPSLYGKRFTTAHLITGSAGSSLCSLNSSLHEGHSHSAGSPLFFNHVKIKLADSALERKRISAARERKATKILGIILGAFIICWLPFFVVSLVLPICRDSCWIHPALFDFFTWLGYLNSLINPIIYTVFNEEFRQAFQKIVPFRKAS
Chain of 5-hydroxytryptamine receptor 6 (Homo sapiens) (P50406 whole entry): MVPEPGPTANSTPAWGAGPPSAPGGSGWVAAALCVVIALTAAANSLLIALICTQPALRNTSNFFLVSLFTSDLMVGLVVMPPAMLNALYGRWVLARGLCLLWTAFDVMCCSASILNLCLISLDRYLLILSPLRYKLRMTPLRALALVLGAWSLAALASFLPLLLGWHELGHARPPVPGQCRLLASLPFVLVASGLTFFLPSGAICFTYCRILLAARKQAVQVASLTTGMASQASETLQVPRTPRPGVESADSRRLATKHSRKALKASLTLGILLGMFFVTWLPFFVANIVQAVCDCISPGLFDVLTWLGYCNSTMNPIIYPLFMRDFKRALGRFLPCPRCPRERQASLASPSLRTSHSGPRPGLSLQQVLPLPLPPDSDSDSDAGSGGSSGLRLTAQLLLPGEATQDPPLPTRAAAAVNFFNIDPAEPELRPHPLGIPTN
Chain of Sodium-dependent serotonin transporter (Homo sapiens) (P31645 whole entry, looked up, the tested form may be a part): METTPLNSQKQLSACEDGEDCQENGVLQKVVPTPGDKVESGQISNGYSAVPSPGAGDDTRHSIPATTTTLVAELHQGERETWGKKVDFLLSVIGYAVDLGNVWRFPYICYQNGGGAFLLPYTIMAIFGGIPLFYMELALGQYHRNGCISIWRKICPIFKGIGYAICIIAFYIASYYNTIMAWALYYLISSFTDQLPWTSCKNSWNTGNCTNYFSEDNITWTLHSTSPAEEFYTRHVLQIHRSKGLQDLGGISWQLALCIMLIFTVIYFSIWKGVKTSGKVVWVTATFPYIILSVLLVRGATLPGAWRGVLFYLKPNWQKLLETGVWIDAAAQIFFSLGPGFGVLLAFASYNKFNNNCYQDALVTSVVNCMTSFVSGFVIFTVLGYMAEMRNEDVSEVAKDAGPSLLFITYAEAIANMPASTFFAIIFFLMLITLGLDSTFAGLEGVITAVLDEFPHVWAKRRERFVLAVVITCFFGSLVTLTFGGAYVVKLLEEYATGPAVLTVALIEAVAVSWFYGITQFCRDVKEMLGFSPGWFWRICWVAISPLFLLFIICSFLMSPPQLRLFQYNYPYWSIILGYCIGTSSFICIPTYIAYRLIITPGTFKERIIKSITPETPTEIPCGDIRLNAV
Chain of Muscarinic acetylcholine receptor M1 (Homo sapiens) (P11229 whole entry): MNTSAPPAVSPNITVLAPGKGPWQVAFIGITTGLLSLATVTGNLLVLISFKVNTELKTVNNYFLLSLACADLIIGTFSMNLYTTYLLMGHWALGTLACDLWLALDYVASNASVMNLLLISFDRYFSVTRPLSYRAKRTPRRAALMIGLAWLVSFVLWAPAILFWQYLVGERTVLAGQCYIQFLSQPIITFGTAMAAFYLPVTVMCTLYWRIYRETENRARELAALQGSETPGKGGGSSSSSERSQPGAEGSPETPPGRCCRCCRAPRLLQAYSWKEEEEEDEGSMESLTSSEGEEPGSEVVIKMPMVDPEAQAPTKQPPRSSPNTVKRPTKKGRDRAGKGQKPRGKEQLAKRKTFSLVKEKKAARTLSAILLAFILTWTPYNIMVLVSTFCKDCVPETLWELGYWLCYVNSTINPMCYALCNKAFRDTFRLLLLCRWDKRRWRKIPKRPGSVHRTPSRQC
Chain of 5-hydroxytryptamine receptor 1B (Homo sapiens) (P28222 whole entry): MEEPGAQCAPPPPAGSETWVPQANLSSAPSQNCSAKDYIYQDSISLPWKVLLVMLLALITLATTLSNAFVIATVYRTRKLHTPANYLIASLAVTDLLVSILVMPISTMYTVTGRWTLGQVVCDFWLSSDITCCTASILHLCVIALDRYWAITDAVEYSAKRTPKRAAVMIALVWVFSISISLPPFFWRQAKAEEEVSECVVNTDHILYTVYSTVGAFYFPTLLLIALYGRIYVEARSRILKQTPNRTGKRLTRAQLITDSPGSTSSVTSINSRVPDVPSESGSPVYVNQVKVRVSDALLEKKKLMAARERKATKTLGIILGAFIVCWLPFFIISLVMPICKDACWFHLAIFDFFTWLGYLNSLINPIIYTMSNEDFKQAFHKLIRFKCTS
Chain of Proteinase-activated receptor 1 (Homo sapiens) (P25116 whole entry): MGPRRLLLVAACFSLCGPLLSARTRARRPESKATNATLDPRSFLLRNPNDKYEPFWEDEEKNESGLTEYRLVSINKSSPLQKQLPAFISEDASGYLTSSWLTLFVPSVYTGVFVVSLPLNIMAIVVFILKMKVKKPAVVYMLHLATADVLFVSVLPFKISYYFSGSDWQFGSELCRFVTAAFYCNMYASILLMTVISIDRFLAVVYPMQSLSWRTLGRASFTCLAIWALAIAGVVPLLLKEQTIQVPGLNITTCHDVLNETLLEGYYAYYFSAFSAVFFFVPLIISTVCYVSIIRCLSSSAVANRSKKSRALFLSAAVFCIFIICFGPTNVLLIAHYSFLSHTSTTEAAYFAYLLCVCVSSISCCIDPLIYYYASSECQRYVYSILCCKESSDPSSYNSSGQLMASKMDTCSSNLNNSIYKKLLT
Chain of Caspase-1 (Homo sapiens) (P29466 120-297 limits assumed): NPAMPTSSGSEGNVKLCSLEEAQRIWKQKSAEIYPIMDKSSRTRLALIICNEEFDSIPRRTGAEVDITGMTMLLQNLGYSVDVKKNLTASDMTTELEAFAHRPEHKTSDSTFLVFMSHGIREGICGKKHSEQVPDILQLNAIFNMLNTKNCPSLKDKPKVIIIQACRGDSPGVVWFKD
Chain of Caspase-1 (Homo sapiens) (P29466 317-404 limits assumed): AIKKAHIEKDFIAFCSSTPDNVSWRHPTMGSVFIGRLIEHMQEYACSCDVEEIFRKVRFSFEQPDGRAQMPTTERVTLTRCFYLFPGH

Ki [1]: 1.13 µM
Ki ([2]; read-out: Ki): 4.95 µM
Ki ([2]; read-out: pKi (converted)): 4.79 µM
IC50 (Chymase): 0.198 µM (active)
inhibition [27]: 8.83%
inhibition [28]: 5.01%
inhibition [29]: 0.22%
inhibition [30]: 12.2%
inhibition [31]: 27.2%
inhibition [32]: -1.4%
inhibition [33]: 31.5%
inhibition [34]: 2.82%
inhibition [35]: 95.9%
inhibition [36]: 6.86%
inhibition [37]: -5.56%
inhibition [38]: 10.4%
inhibition [39]: 10.5%
inhibition [40]: 8.69%
inhibition [41]: 12.1%
residual activity (Chymase (Homo sapiens)): -1%
SMILES: CC[C@H](CC(=O)O)n1c(=O)c2ncccc2n(Cc2cn(C)c3cc(C)cc(C)c23)c1=O [BI-1942]
residual activity [3]: 134%
residual activity [4]: 101%
residual activity [5]: 97%
residual activity [6]: 105%
residual activity (Caspase-1 (Homo sapiens)): 103%
residual activity [7]: 111%
residual activity [8]: 98%
residual activity [9]: 99%
residual activity [10]: 109%
residual activity [11]: 98%
residual activity [12]: 108%
residual activity [13]: 82%
residual activity [14]: 101%
residual activity (Rattus norvegicus): 104%
residual activity [15]: 104%
activity at 10 µM [16]: 86% (not active)
residual activity [17]: 104%
residual activity [18]: 100%
residual activity [19]: 107%
residual activity [20]: 134%
residual activity [21]: 96%
residual activity [22]: 102%
residual activity [23]: 103%
residual activity [24]: 100%
residual activity [25]: 86%
residual activity [26]: 88%
